Laboratory results from article PMC9321043, “Synthesis, Structure–Activity Relationships, and Parasitological Profiling of Brussonol Derivatives as New Plasmodium falciparum Inhibitors” (Pharmaceuticals, 2022).

Tests used:
[1] = test system: P. knowlesi; experiment: In vitro evaluation against P. knowlesi, NanoLuc luminescence; assay type: cell-based; settings: Plasmodium knowlesi, 40 h
Method: The P. falciparum strains were cultivated in human blood cells (hRBC) O^+, while P. knowlesi was cultivated in rhesus red blood cells (rRBC) as described. P. falciparum complete RPMI (consisting of RPMI-1640, supplemented with 0.2% NaHCO3, 25 mM HEPES (pH 7.4), 11 mM D-glucose, 10 mg/L hypoxanthine, 25 mg/L gentamicin, and 0.5% (m/v) AlbuMAX II). The parasitemias of these cultures were maintained below 10% with 2.5% hematocrit. P. knowlesi complete RPMI (consisting of RPMI-1640 supplemented with 25 mM HEPES, […] hypoxanthine, 0.26% NaHCO3, 10 mg/L gentamicin, and 1% Albumax II). This culture was maintained with RBCs up to 5% hematocrit. The culture medium was changed daily, and all cultures were maintained under a 90% N2/5% CO2/5% O2 gas mixture at 37 °C. All compounds were purchased from Sigma-Aldrich (Cotia, Brazil).
Blood-stage P. knowlesi cultures were diluted to 0.5% parasitemia and brought to 2% hematocrit for growth in 96-well plates containing the desired drug concentration series (200 µL of culture/well). […] Parasite growth in the plates was measured by luminescence (NanoLuc method). […] The plates were then incubated for 3 min at room temperature and the luminescence was assessed using a plate luminometer (Molecular Devices, San Jose, CA, USA) with 1 s integration time. Luminescence readings were normalized to values from control wells containing no drug. […]

[2] = test system: hemozoin formation; experiment: Hemozoin formation inhibition assay; assay type: biochemical; settings: hemin 25 µM, pH 4.8, 4 h, one experiment in triplicate
Method: 2. Hemozoin Formation Inhibition Assay
The hemozoin formation inhibition assay was performed as described previously.12 Briefly, serial 1:3 dilutions, in a 96‐well plate, wit h brussonol were made in a final volume of 20 μL in a concentration 10 times higher than the final concentration of the assay. Secondly, 90 μ L of freshly prepared hemin (at a final concentration of 25 μM) solution in 1M NaOAc/HOAc buffer pH 4.8 were added followed by addition of 90 μ L of 5.4 mg/L Tween 20 solution freshly prepared. The plates were let to stand for 4 hours at 37 °C followed by resuspension with multichannel pippete and read at 415 and 630 nm using a SpectraMAX Plus 384 plate reader (Molecular Devices Corp., Sunnyvale, CA).
Due to the absence of enough compound, this experiment wa s performed only once, but with internal triplicate. Chloroquine (CQ) and pyrimethamine (PYR) were used as positive and negative control of inhibition, respectively.
Inhibition (%) = 100 – 100 x [(Aco ntro l – Asample) / (Acontrol - Amin)] Acontrol is the difference of the absorbance at 415 and 630 nm of the negative control (Hemin +, Tween 20 ‐, Compound ‐); Amin is the difference of the absorbance at 415 and 630 nm of the positive control (Hemin +, Tween 20 +, Compound ‐ ); Asample is the difference of the absorbance at 415 and 630 nm of the sample. The hemozoin formation inhibition assay was performed to evaluate if brussonol act inhibiting hemozoin formation in P. falciparum. CQ, which is a well‐known inhibitor of hemozoin […]
Figure S1. Hemozoin formation inhibition assay. Different concentrations of CQ (black triangles), PYR (red squares) and brussonol (blue circles) were incubated with heme in triplicates. Th e absorbance was recorded at 415/630 nm to determine the hemozoin formation inhibition. […]

[3] = test system: cytosolic Ca^2+ in P. falciparum; experiment: [Ca2+]cyt measurements in isolated parasites loaded with Fluo-4AM; assay type: cell-based, Plasmodium falciparum
Method: One of the compounds identified in the structural similarity search was the cyclopiazonic acid (CPA) (Figure 8a). […] Because of that, brussonol activity on the modulation of the SERCA pump was investigated. To assess the effect of brussonol on calcium mobilization in P. falciparum intraerythrocytic stages, isolated parasites loaded with Fluo-4-AM were exposed to 10 μM brussonol in MOPS Ca^2+ buffer. […] To verify if the brussonol-elicited [Ca^2+]cyt increment originated from the endoplasmic reticulum (ER), targeting the PfSERCA pump, CPA was added before the addition of brussonol. […] In the brussonol-pretreated parasites, the addition of CPA still increased the cytosolic Ca^2 + level (30 ± 5 nM) (Figure 8d).
Isolated parasites were incubated for 1 h at 37 °C with 5 μM of Fluo-4AM in 1 mL MOPS buffer (116 mM NaCl, 5.4 mM KCl, 0.8 mM MgSO4, 5.5 mM D-glucose, 50 mM MOPS, and 2 mM CaCl2, pH 7.2), with 1 mM probenecid to minimize compartmentalization and extrusion of probe. The parasites were washed three times with the same buffer and transferred to a quartz cuvette. Intracellular calcium was measured continuously using a Hitachi F-7000 spectrofluorimeter (Tokyo, Japan) by measurement of the fluorescence (λex = 488 nm and λem = 530 nm) at 37 °C, under agitation. When indicated, 10 µM of cyclopiazonic acid (CPA) or 10 µM of brussonol were added to the cuvette. Maximal fluorescence (Fmax) was determined after the lysis of with digitonin 0.15% (m/v), and minimal fluorescence (Fmin) was determined by adding 25 mM EGTA in 3 M Tris, pH 8.8, until no further decrease in fluorescence was observed. The cytosolic calcium concentration ([Ca^2+]cyt) was calculated from the fluorescence data (F) using a Kd value of 345 nM using the formula:Ca^2 +cyt = 345 × [(F − Fmin)/(Fmax − F)]
The results (n = 2) were analyzed through One-Way ANOVA with Tukey post-test. All compounds described here were purchased from Sigma-Aldrich (verificar local).

[4] = test system: P. falciparum TM90C6B strain; experiment: Resistance assessment, TM90C6B strain; assay type: cell-based; settings: Plasmodium falciparum
[5] = test system: P. falciparum 3D7^r_MMV848 strain; experiment: Resistance assessment, 3D7r-MMV848 strain; assay type: cell-based; settings: Plasmodium falciparum

CC(C)c1cc2c(c(O)c1O)C[C@@]13CCCC(C)(C)[C@@H]1C[C@@H]2O3 [Compound 1, brussonol]
IC50 [1]: 20 ± 4 µM
hemozoin formation inhibition (in words) ([2]; listed as Brussonol): do not act inhibiting hemozoin formation
hemozoin formation inhibition (in words) ([2]; listed as brussonol): did not interfere with hemozoin polymerization
[Ca^2+]cyt rise after CPA pretreatment ([3]; 10 µM brussonol added after 10 µM CPA reached a plateau): 19 ± 8 nM
[Ca^2+]cyt rise ([3]; 10 µM compound alone, MOPS Ca^2+ buffer, relative to basal level): 19 ± 4 nM
IC50 [4]: 7 ± 2 µM
IC50 [5]: 12 ± 3 µM
